Earlier results on one molecule are cited in paper PMC9574858, “Linker-Dependent Folding Rationalizes PROTAC Cell Permeability” (Journal of Medicinal Chemistry, 2022).

For the data set, the target named is CRBN (Homo sapiens, UniProt Q96SW2). Set-up: method as in PMID 29358579.
Sequence of CRBN (Q96SW2 whole entry): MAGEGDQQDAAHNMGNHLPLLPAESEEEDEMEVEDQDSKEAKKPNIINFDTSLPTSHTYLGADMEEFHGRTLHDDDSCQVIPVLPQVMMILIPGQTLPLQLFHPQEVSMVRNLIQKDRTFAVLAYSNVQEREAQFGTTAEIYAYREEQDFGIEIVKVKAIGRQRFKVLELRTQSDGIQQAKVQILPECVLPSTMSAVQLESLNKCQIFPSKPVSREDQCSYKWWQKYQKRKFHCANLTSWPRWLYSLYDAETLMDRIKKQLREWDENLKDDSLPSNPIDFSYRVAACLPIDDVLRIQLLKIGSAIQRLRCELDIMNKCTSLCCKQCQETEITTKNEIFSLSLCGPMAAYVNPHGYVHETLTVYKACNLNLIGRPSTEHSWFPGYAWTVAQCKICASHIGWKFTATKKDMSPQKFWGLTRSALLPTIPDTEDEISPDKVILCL

Take `O=C1CC[C@H](N2C(=O)c3ccccc3C2=O)C(=O)N1` [S-form of thalidomide, thalidomide]: the “affinity for CRBN compared with the R-form” value is 1 order of magnitude higher.
